# Tests used:
# [1] = system: PC3 prostate cancer cells; assay: Cell proliferation assay in prostate cancer PC3 cells; format: cell-based; conditions: for inhibition at 10 µM: Homo sapiens, PC-3
# Procedure: Cell Proliferation Assay:
# PC3 prostate cancer cells were cultured in DMEM/F-12 HAM Mixture (Sigma D8437), 10% Fetal Bovine Serum (Atlanta Biological S11150). Before the treatment, 3.5×10^4 cells per well were split into 12-well plates. After 24 h, 10 μM of each compound was added to each well. DMSO was used as a control. This experiment was done in triplicate. Cell viability and number were analyzed using Vi-Cell XR Cell Viability Analyzer (Beckman Coulter).
compound,measurement,setting,value
"3-(4-Methoxyphenyl)-2,11-methyl-6a,7,8,9a-tetrahydro-4H,6H-furo[2,3-b]pyrano[3,2-g]chromen-4-one [Isoflavonoid 25g]",Inhibition at 10 μM (%),"[1]; Table 3, Diels-Alder adducts, inhibition of proliferation, PC3 cells, 10 μM",61 ± 2%
"COc1ccccc1-c1coc2cc(OC)c(COC(C)=O)c(OC(C)=O)c2c1=O [Isoflavonoid 6a, 5-Acetoxy-6-(acetoxymethyl)-7-methoxy-3-(2-methoxyphenyl)-4H-chromen-4-one]",inhibition at 10 µM,[1],17.1 ± 5.9%
"COc1ccc(-c2coc3cc(OC)c(COC(C)=O)c(OC(C)=O)c3c2=O)cc1 [Isoflavonoid 6b, 5-Acetoxy-6-(acetoxymethyl)-7-methoxy-3-(4-methoxyphenyl)-4H-chromen-4-one]",inhibition at 10 µM,[1],51.7 ± 5.7%
"COc1ccc(-c2coc3c(C)c(OC(C)=O)c(COC(C)=O)cc3c2=O)cc1 [Isoflavonoid 6c, [7-(Acetyloxy)-3-(4-methoxyphenyl)-8-methyl-4-oxo-4H-chromen-6-yl]methyl acetate]",melting point,,136 to 138 °C
"COc1ccc(-c2coc3c(COC(C)=O)c(OC)cc(OC(C)=O)c3c2=O)cc1 [Isoflavonoid 7b, 5-Acetoxy-8-(acetoxymethyl)-7-methoxy-3-(4-methoxyphenyl)-4H-chromen-4-one]",inhibition at 10 µM,[1],20.2 ± 2%
"COc1ccccc1-c1coc2c(COC(C)=O)c(OC(C)=O)ccc2c1=O [Isoflavonoid 7c, 7-(Acetoxy)-8-(acetoxymethyl)-3-(2-methoxyphenyl)-4H-chromen-4-one]",inhibition at 10 µM,[1],20.6 ± 3.8%
"COc1ccc(-c2c(C)oc3c(COC(C)=O)c(OC(C)=O)ccc3c2=O)cc1 [Isoflavonoid 7e, 7-(Acetoxy)-8-(acetoxymethyl)-3-(4-methoxyphenyl)-2-methyl-4H-chromen-4-one]",inhibition at 10 µM,[1],98.2 ± 1.5%
same,melting point,,142 to 144 °C
"COc1ccccc1-c1coc2cc(OC)c(CO)c(O)c2c1=O [Isoflavonoid 8a, 5-Hydroxy-6-(hydroxymethyl)-7-methoxy-3-(2-methoxyphenyl)-4H-chromen-4-one]",inhibition at 10 µM,[1],14.6 ± 3.2%
same,melting point,,100 to 101 °C
"COc1ccc(-c2coc3cc(OC)c(CO)c(O)c3c2=O)cc1 [Isoflavonoid 8b, 5-Hydroxy-6-(hydroxymethyl)-7-methoxy-3-(4-methoxyphenyl)-4H-chromen-4-one]",inhibition at 10 µM,[1],0%
same,melting point,,138 to 139 °C
"COc1ccc(-c2coc3c(C)c(O)c(CO)cc3c2=O)cc1 [Isoflavonoid 8c, 7-Hydroxy-6-(hydroxymethyl)-3-(4-methoxyphenyl)-8-methyl-4H-chromen-4-one]",melting point,,153 to 155 °C
"COc1ccc(-c2coc3c(CO)c(OC)cc(O)c3c2=O)cc1 [Isoflavonoid 9b, 5-Hydroxy-8-(hydroxymethyl)-7-methoxy-3-(4-methoxyphenyl)-4H-chromen-4-one]",inhibition at 10 µM,[1],79.5 ± 3.6%
same,melting point,,139 to 141 °C
"COc1ccccc1-c1coc2c(CO)c(O)ccc2c1=O [Isoflavonoid 9c, 7-Hydroxy-8-(hydroxymethyl)-3-(2-methoxyphenyl)-4H-chromen-4-one]",inhibition at 10 µM,[1],0%
same,melting point,,163 to 165 °C
"COc1ccc(-c2coc3c(CO)c(O)ccc3c2=O)cc1 [Isoflavonoid 9d, 7-Hydroxy-8-(hydroxymethyl)-3-(4-methoxyphenyl)-4H-chromen-4-one]",inhibition at 10 µM,[1],99.5 ± 0.2%
same,melting point,,150 to 152 °C (dec.)
"COc1ccc(-c2c(C)oc3c(CO)c(O)ccc3c2=O)cc1 [Isoflavonoid 9e, 7-Hydroxy-8-(hydroxymethyl)-3-(4-methoxyphenyl)-2-methyl-4H-chromen-4-one]",inhibition at 10 µM,[1],99.5 ± 0.5%
same,melting point,,212 to 214 °C (dec.)
"COCc1c(OC)cc2occ(-c3ccccc3OC)c(=O)c2c1O [Isoflavonoid 10a, 5-Hydroxy-7-methoxy-6-(methoxymethyl)-3-(2-methoxyphenyl)-4H-chromen-4-one]",inhibition at 10 µM,[1],53.4 ± 8%
same,melting point,,123 to 124 °C
"COCc1c(OC)cc2occ(-c3ccc(OC)cc3)c(=O)c2c1O [Isoflavonoid 10b, 5-Hydroxy-7-methoxy-6-(methoxymethyl)-3-(4-methoxyphenyl)-4H-chromen-4-one]",inhibition at 10 µM,[1],0%
same,melting point,,180 to 181 °C
"COCc1cc2c(=O)c(-c3ccc(OC)cc3)coc2c(C)c1O [Isoflavonoid 10c, 7-Hydroxy-6-(methoxymethyl)-3-(4-methoxyphenyl)-8-methyl-4H-chromen-4-one]",melting point,,143 to 145 °C
"COCc1c(OC)cc(O)c2c(=O)c(-c3ccccc3OC)coc12 [Isoflavonoid 11a, 5-Hydroxy-7-methoxy-8-(methoxymethyl)-3-(2-methoxyphenyl)-4H-chromen-4-one]",inhibition at 10 µM,[1],0%
same,melting point,,154 to 155 °C
"COCc1c(O)ccc2c(=O)c(-c3ccc(OC)cc3)c(C)oc12 [Isoflavonoid 11e, 7-Hydroxy-8-(methoxymethyl)-3-(4-methoxyphenyl)-2-methyl-4H-chromen-4-one]",melting point,,215 to 217 °C (dec.)
"COc1ccc(-c2coc3c4c(ccc3c2=O)OC2OCCC2C4)cc1OC (stereo not shown) [Isoflavonoid 20b, 3-(3,4-Dimethoxyphenyl)-9,10,10a,11-tetrahydro-4H,7aH-furo[2,3-b]pyrano[2,3-f]chromen-4-one]",melting point,,193 to 195 °C
"O=c1c(-c2ccc3c(c2)OCCO3)coc2c3c(ccc12)OC1OCCC1C3 (stereo not shown) [Isoflavonoid 20d, 3-(2,3-Dihydro-1,4-benzodioxin-6-yl)-9,10,10a,11-tetrahydro-4H,7aH-furo[2,3-b]pyrano[2,3-f]chromen-4-one]",melting point,,188 to 189 °C
"Cc1oc2c3c(ccc2c(=O)c1-c1ccccc1)OC1OCCC1C3 (stereo not shown) [Isoflavonoid 20f, 2-Methyl-3-phenyl-9,10,10a,11-tetrahydro-4H,7aH-furo[2,3-b]pyrano[2,3-f]chromen-4-one]",melting point,,181 to 182 °C
"COc1ccc(-c2c(C)oc3c4c(ccc3c2=O)OC2OCCC2C4)cc1 (stereo not shown) [Isoflavonoid 20g, 3-(4-Methoxyphenyl)-2-methyl-9,10,10a,11-tetrahydro-4H,7aH-furo[2,3-b]pyrano[2,3-f]chromen-4-one]",melting point,,227 to 229 °C
"COc1ccc(-c2c(C)oc3c4c(ccc3c2=O)OC2OCCC2C4)cc1OC (stereo not shown) [Isoflavonoid 20h, 3-(3,4-Dimethoxyphenyl)-2-methyl-9,10,10a,11-tetrahydro-4H,7aH-furo[2,3-b]pyrano[2,3-f]chromen-4-one]",melting point,,217 to 219 °C
"Cc1oc2c3c(ccc2c(=O)c1-c1ccc(Cl)cc1)OC1OCCC1C3 (stereo not shown) [Isoflavonoid 20i, 3-(4-Chlorophenyl)-2-methyl-9,10,10a,11-tetrahydro-4H,7aH-furo[2,3-b]pyrano[2,3-f]chromen-4-one]",melting point,,266 to 268 °C
"Cc1oc2c3c(ccc2c(=O)c1-c1ccccc1)OC1OCCCC1C3 (stereo not shown) [Isoflavonoid 21f, 2-Methyl-3-phenyl-10,11,11a,12-tetrahydro-4H,7aH,9H-dipyrano[2,3-b:2′,3′-f]chromen-4-one]",melting point,,165 to 167 °C
"COc1ccc(-c2coc3c4c(ccc3c2=O)OC2=C(C4)C(=O)CC(C)(C)C2)cc1 [Isoflavonoid 22a, 3-(4-Methoxyphenyl)-9,9-dimethyl-8,9,10,12-tetrahydro-4H,11H-pyrano[2,3-a]xanthene-4,11-dione]",melting point,,223 to 225 °C
"CC1(C)CC(=O)C2=C(C1)Oc1ccc3c(=O)c(-c4ccc5c(c4)OCO5)coc3c1C2 [Isoflavonoid 22c, 3-(1,3-Benzodioxol-5-yl)-9,9-dimethyl-8,9,10,12-tetrahydro-4H,11H-pyrano[2,3-a]xanthene-4,11-dione]",melting point,,258 to 260 °C
"Cc1oc2c3c(ccc2c(=O)c1-c1ccccc1)OC1=C(C3)C(=O)CC(C)(C)C1 [Isoflavonoid 22f, 2,9,9-trimethyl-3-phenyl-8,9,10,12-tetrahydro-4H,11H-pyrano[2,3-a]xanthene-4,11-dione]",melting point,,265 to 266 °C
"COc1ccc(-c2c(C)oc3c4c(ccc3c2=O)OC2=C(C4)C(=O)CC(C)(C)C2)cc1 [Isoflavonoid 22g, 3-(4-Methoxyphenyl)-2,9,9-trimethyl-8,9,10,12-tetrahydro 4H,11H-pyrano[2,3-a]xanthene-4,11-dione]",melting point,,236 to 237 °C
"COc1ccc(-c2c(C)oc3c(CC4CCCC4=O)c(O)ccc3c2=O)cc1 (stereo not shown) [Isoflavonoid 23g, 7-Hydroxy-3-(4-methoxyphenyl)-2-methyl-8-[(2-oxocyclopentyl)methyl]-4H-chromen-4-one]",melting point,,210 to 211 °C
"COc1ccc(-c2c(C)oc3c(CC4CCCC4=O)c(O)ccc3c2=O)cc1OC (stereo not shown) [Isoflavonoid 23h, 3-(3,4-Dimethoxyphenyl)-7-hydroxy-2-methyl-8-[(2-oxocyclopentyl)methyl]-4H-chromen-4-one]",melting point,,88 to 90 °C
"O=c1c(-c2ccc3c(c2)OCO3)coc2c3c(ccc12)OC1(O)CCCCC1C3 (stereo not shown) [Isoflavonoid 24c, 3-(1,3-Benzodioxol-5-yl)-7a-hydroxy-8,9,10,11,11a,12-hexahydro-4H,7aH-pyrano[2,3-a]xanthen-4-one]",melting point,,197 °C
"COc1ccc(-c2c(C)oc3c4c(ccc3c2=O)OC2(O)CCCCC2C4)cc1OC (stereo not shown) [Isoflavonoid 24h, 3-(3,4-Dimethoxyphenyl)-7a-hydroxy-2-methyl-8,9,10,11,11a,12-hexahydro-4H,7aH-pyrano[2,3-a]xanthen-4-one]",melting point,,193 to 194 °C
"COc1ccc(-c2coc3c(C)c4c(cc3c2=O)CC2=C(CC(C)(C)CC2=O)O4)cc1 [Isoflavonoid 26a, 3-(4-Methoxyphenyl)-9,9,12-trimethyl-6,8,9,10-tetrahydro-4H,7H-pyrano[3,2-b]xanthene-4,7-dione]",melting point,,230 to 232 °C
"COc1ccc(-c2c(C)oc3c(C)c4c(cc3c2=O)CC2=C(CC(C)(C)CC2=O)O4)cc1 [Isoflavonoid 26g, 3-(4-Methoxyphenyl)-2,9,9,12-tetramethyl-6,8,9,10-tetrahydro-4H,7H-pyrano[3,2-b]xanthene-4,7-dione]",melting point,,270 to 272 °C
